The values that follow come from paper PMC3713598, “Renal Protective Role of Xiexin Decoction with Multiple Active Ingredients Involves Inhibition of Inflammation through Downregulation of the Nuclear Factor-κB Pathway in Diabetic Rats” (Evidence-based Complementary and Alternative Medicine : eCAM, 2013).

A short description of series [1]: Pharmacokinetics of XXD ingredients in diabetic rat plasma (LC-MS/MS). The following applies: for AUC(0-t) / Cmax / Tmax: male, Sprague-Dawley, po; for AUC(0-t) / Cmax: rat; for shape of plasma concentration-time curve / Tmax: after ig administration of XXD for 12 weeks; for Tmax: diabetic rat plasma, read-out: time of peak concentrations (converted). The class given is in vivo. As to the method: Male Sprague-Dawley rats (90−100 g) were purchased from the Shanghai Slac Laboratory Animal Co. (Shanghai, China). The rats were housed in an air-conditioned room at 22–24°C under a 12-h dark/light cycle and were given food and water at libitum. All animal experiments were conducted in accordance with the institutional guidelines for the care and use of laboratory animals at Shanghai University of TCM. After 1-week adaptation, animals were divided into a normal control (NC) group fed a standard diet and a high-fat group received a high-fat diet. After 4 weeks, rats on the high-fat diet were treated with streptozotocin (40 mg/kg, intraperitoneal injection). […] In the clinical practice of TCM, XXD is usually prescribed at a daily dose of 46 g of herbal materials (amount to 12 g extract) for diabetic patient. When this human dose was converted into an animal dose (a person of 60 kg, and a conversion factor of 6.25 between human and rat), it was equivalent to the low dose (1.25 g/kg extract) used in this study. NC and DM were treated with vehicle (normal saline) in a matched volume. All the rats were administered the drugs via intragastric gavage (ig) once a day, for 12 weeks.
The rats treated with XXD for 12 weeks were fasted with free access to water for 12 h before the PK experiments. Blood samples were collected before dosing and at 0, 0.25, 0.5, 1, 2, 4, 6, 12, and 24 h following administration. A validated liquid chromatography-tandem mass spectrometry (LC-MS/MS) method was applied to simultaneously determine the concentration of 11 ingredients (coptisine, jatrorrhizine, berberine, palmatine, baicalin, baicalein, wogonoside, wogonin, rhein, emodin, and aloeemodin) in blood plasma. The plasma concentration-time data were analysed by noncompartmental methods with the WinNonLin software package (Pharsight Corporation, Mountain View, CA, USA) to determine PK parameters.

The next series has as its system diabetic nephropathy. The note with it: cited from earlier work.
Where [2] appears, read: XXD 1.25 g/kg intragastric gavage for 12 weeks, diabetic rats, plasma, mean ± SD n = 8, read-out: AUC0–24 h.
The mark [3] stands for this setting: XXD 1.25 g/kg intragastric gavage for 12 weeks, diabetic rats, plasma, mean ± SD n = 8, read-out: C max.
Setting [4] is: XXD 2.5 g/kg intragastric gavage for 12 weeks, diabetic rats, plasma, mean ± SD n = 8, read-out: AUC0–24 h.
The mark [5] stands for this setting: XXD 2.5 g/kg intragastric gavage for 12 weeks, diabetic rats, plasma, mean ± SD n = 8, read-out: C max.

Read-outs that look alike come from different tables or passages of the source.

In series [1] (in vivo, 1.25 g/kg), `COc1cc2c(cc1OC)-c1cc3ccc(OC)c(OC)c3c[n+]1CC2` [Palmatine, palmatine] returned an AUC(0-t) of 113 ± 69 ng·h/mL and a Cmax of 17 ± 13 ng/mL. In series [1] (in vivo, 2.5 g/kg), this compound returned an AUC(0-t) of 312 ± 197 ng·h/mL and a Cmax of 29 ± 18 ng/mL.
Turning to `O=C(O)[C@H]1O[C@@H](Oc2cc3oc(-c4ccccc4)cc(=O)c3c(O)c2O)[C@H](O)[C@@H](O)[C@@H]1O` [Baicalin, baicalin], in the series with diabetic nephropathy, the anti-DN effects result is listed as “exhibited anti-DN effects”. For the same compound, the “renal TGF-β1 protein expression” value in the series on diabetic nephropathy was “downregulate”. Besides, the “shape of plasma concentration-time curve” value in series [1] (diabetic rats) is “double peaks”. The Tmax in series [1] was 10 min. The values for the AUC(0-t) in series [1] (setting [2]) and in series [1] (setting [4]) were 4700 ± 1730 ng·h/mL and 16100 ± 9600 ng·h/mL, respectively. For the same compound, the Cmax in series [1] (setting [3]) is 1560 ± 570 ng/mL; in series [1] (setting [5]), 4310 ± 1710 ng/mL.
Take `COc1c(O)cc(O)c2c(=O)cc(-c3ccccc3)oc12` [Wogonin, wogonin]: in series [1], the Tmax was 10 min. Also, the results for the AUC(0-t) in series [1] (setting [2]) and in series [1] (setting [4]) were 154 ± 71 ng·h/mL and 423 ± 307 ng·h/mL, respectively. In addition, the figures for the Cmax in series [1] (setting [3]) and in series [1] (setting [5]) were 47 ± 38 ng/mL and 149 ± 86 ng/mL, respectively.
For the compound `COc1c(O[C@@H]2O[C@H](C(=O)O)[C@@H](O)[C@H](O)[C@H]2O)cc(O)c2c(=O)cc(-c3ccccc3)oc12` [Wogonoside, wogonoside], the “shape of plasma concentration-time curve” value in series [1] (diabetic rats) is recorded as “double peaks”. For the same compound, in series [1], the Tmax was 10 min. The AUC(0-t) in series [1] (setting [2]) worked out at 3460 ± 894 ng·h/mL; in series [1] (setting [4]), 8880 ± 2990 ng·h/mL. The Cmax in series [1] (setting [3]) is 1140 ± 321 ng/mL; in series [1] (setting [5]) it was 2240 ± 475 ng/mL.
Turning to `O=C1c2cccc(O)c2C(=O)c2c(O)cc(CO)cc21` [aloeemodin], the “plasma concentration relative to LLOQ” value in series [1] (at about 0.5–2 h after ig XXD, below the LLOQ at other times) is recorded as “slightly higher than the lower limit of quantification”.
For `COc1cc2c(cc1O)CC[n+]1cc3c(OC)c(OC)ccc3cc1-2` [Jatrorrhizine, jatrorrhizine], in series [1] (diabetic rats), the “shape of plasma concentration-time curve” value is recorded as “double peaks”. Besides, the AUC(0-t) was found to be 172 ± 57 ng·h/mL in series [1] (setting [2]) and 201 ± 152 ng·h/mL in series [1] (setting [4]). Besides, the Cmax in series [1] (setting [3]) was determined as 14 ± 9 ng/mL; in series [1] (setting [5]), 21 ± 13 ng/mL.
In the case of `Cc1cc(O)c2c(c1)C(=O)c1cc(O)cc(O)c1C2=O` [Emodin, emodin], the anti-DN effects entry with diabetic nephropathy was “exhibited anti-DN effects”. Also, the Tmax in series [1] (in vivo) was 30 min. For the same compound, the AUC(0-t) in series [1] (in vivo, XXD 1.25 g/kg intragastric gavage for 12 weeks, diabetic rats, plasma, mean ± SD n = 8, read-out: AUC0–24 h) stood at 61 ± 8 ng·h/mL; in series [1] (in vivo, XXD 2.5 g/kg intragastric gavage for 12 weeks, diabetic rats, plasma, mean ± SD n = 8, read-out: AUC0–24 h), 119 ± 25 ng·h/mL. The Cmax in series [1] (in vivo, XXD 1.25 g/kg intragastric gavage for 12 weeks, diabetic rats, plasma, mean ± SD n = 8, read-out: C max) is 13 ± 7 ng/mL; in series [1] (in vivo, XXD 2.5 g/kg intragastric gavage for 12 weeks, diabetic rats, plasma, mean ± SD n = 8, read-out: C max), 22 ± 9 ng/mL.
Take `O=C(O)c1cc(O)c2c(c1)C(=O)c1cccc(O)c1C2=O` [Rhein, rhein]: in the series with diabetic nephropathy, the anti-DN effects entry is listed as “exhibited anti-DN effects”. Moreover, the “renal TGF-β1 protein expression” value with diabetic nephropathy is on record as “downregulate”. The Tmax in series [1] is 10 min. Moreover, the AUC(0-t) in series [1] (setting [2]) is 1100 ± 216 ng·h/mL; in series [1] (setting [4]), 2790 ± 937 ng·h/mL. Besides, the Cmax is 961 ± 430 ng/mL in series [1] (setting [3]) and 1750 ± 514 ng/mL in series [1] (setting [5]).
